Changes are numbered by the printed parent chain. Marks after values point to notes of the source that are not given here.
Assays:
[1] = molecular target: T1, mSUCNR1 construct containing N18^1.31E, K269^7.32N, and G84^EL1W (Mus musculus, UniProt Q99MT6, G84W/K269N/N18E); test: G protein activation BRET assay, mSUCNR1-N18E/G84W/K269N; type: cell-based
T1 construct: expressed in transfected cells; host or cells: HEK-293T
T1 sequence (Q99MT6 1-317 N18E/G84W/K269N): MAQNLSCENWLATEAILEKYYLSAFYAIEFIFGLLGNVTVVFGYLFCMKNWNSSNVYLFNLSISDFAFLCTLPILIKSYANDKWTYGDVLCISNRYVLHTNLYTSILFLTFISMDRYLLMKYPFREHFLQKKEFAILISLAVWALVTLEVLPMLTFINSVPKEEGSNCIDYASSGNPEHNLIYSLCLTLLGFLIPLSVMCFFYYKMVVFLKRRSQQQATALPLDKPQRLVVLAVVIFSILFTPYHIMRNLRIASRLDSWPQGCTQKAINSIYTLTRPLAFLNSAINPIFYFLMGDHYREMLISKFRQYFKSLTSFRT
Experimental: G protein activation assays were carried out using the open-source TRUPATH platform previously described.[36] HEK-293T cells were transfected with Gαi1-Rluc8, Gγ8-GFP^2, Gβ3 and either human, mouse, mouse-N18E/K269N, or mouse-N18E/G84W/K269N SUCNR1 in a 1:1:1:1 plasmid mass ratio using polyethyleneimine.

[2] = molecular target: T2, mSUCNR1-N18^1.31E/K269^7.32N (Mus musculus, UniProt Q99MT6, K269N/N18E); test: G protein activation BRET assay, mSUCNR1-N18E/K269N; type: cell-based; conditions: against an EC80 concentration of succinate
T2 construct: expressed in transfected cells; host or cells: HEK-293T
T2 sequence (Q99MT6 1-317 N18E/K269N): T1 sequence (Q99MT6 1-317 N18E/G84W/K269N) with W84G
Experimental: G protein activation assays were carried out using the open-source TRUPATH platform previously described.[36]

hSUCNR1 [3] = molecular target: T3, hSUCNR1 (Homo sapiens, UniProt Q9BXA5); test: BRET competition binding using 22 as tracer, hSUCNR1; conditions: 3 μM 22, Kd = 990 nM; mean ± SEM, three experiments
T3 sequence (Q9BXA5 1-334): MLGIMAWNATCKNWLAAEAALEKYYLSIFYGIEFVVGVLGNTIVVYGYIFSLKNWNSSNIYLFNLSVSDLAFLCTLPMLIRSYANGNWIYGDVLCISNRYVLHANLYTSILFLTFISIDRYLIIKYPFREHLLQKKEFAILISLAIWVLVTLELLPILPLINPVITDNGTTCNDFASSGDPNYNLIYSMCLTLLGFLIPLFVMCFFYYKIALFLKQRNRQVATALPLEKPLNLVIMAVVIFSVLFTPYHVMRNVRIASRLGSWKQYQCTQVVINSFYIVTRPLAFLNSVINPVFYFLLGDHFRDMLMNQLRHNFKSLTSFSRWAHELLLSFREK

hSUCNR1 [4] = molecular target: T3, hSUCNR1; test: cAMP assay, inhibition of succinate response at hSUCNR1; type: cell-based; set-up: expressed in transfected cells; host or cells: Flp-In T-REx 293; conditions: inhibition of […] succinate response; mean ± SEM
hmSUCNR1 [5] = molecular target: T4, hmSUCNR1 (Mus musculus, UniProt Q99MT6, G84W/K269N/N18E); test: BRET competition binding using 46 as tracer, hmSUCNR1
T4 sequence (Q99MT6 1-317 N18E/G84W/K269N): T1 sequence (Q99MT6 1-317 N18E/G84W/K269N)

[6] = molecular target: T5, hmSUCNR1 (N18^1.31E, K269^7.32N, and G84^EL1W) (Mus musculus, UniProt Q99MT6, G84W/K269N/N18E); test: cAMP assay, inhibition of succinate response at hmSUCNR1; type: cell-based; conditions: read-out: hmSUCNR1 cAMP pIC50 (converted)
T5 construct: mGlu5 glutamate receptor signal peptide (N); expressed in transfected cells; the methods describe Flp-In T-REx 293
T5 sequence (Q99MT6 1-317 N18E/G84W/K269N): T1 sequence (Q99MT6 1-317 N18E/G84W/K269N)

mSUCNR1 [7] = molecular target: T6, mSUCNR1 (Mus musculus, UniProt Q99MT6); test: BRET competition binding using 22 as tracer, mSUCNR1; conditions: 1 μM 22, Kd = […]; highest unlabeled ligand 30 μΜ
T6 sequence (Q99MT6 1-317): T1 sequence (Q99MT6 1-317 N18E/G84W/K269N) with E18N, W84G, N269K

hSUCNR1 [8] = molecular target: T3, hSUCNR1; test: BRET competition binding using 46 as tracer, hSUCNR1; conditions: […] 46, Kd = 310 nM
hmSUCNR1 [9] = molecular target: T4, hmSUCNR1; test: BRET competition binding using 22 as tracer, hmSUCNR1
hSUCNR1 [10] = molecular target: T3, hSUCNR1; test: cAMP assay, agonist potency at hSUCNR1; type: cell-based; set-up: expressed in transfected cells; host or cells: Flp-In T-REx 293; conditions: Flp-In T-REx 293 cells, mean ± SEM, minimum three independent experiments
mSUCNR1 [11] = molecular target: T6, mSUCNR1; conditions: transiently transfected HEK-293T cells
mSUCNR1 [12] = molecular target: T6, mSUCNR1; test: cAMP assay, agonist potency at mSUCNR1; type: cell-based; set-up: expressed in transfected cells; host or cells: Flp-In T-REx 293; conditions: Flp-In T-REx 293 cells; for cAMP mSUCNR1 pEC50: mean ± SEM, minimum three independent experiments
Nluc-mSUCNR1 = molecular target: T7, Nluc-mSUCNR1 (Mus musculus, UniProt Q99MT6); test: cAMP assay, agonist potency at Nluc-mSUCNR1; conditions: N-terminally Nluc-tagged receptor
T7 sequence (Q99MT6 1-317): T1 sequence (Q99MT6 1-317 N18E/G84W/K269N) with E18N, W84G, N269K

| SMILES | antagonism at mSUCNR1 N18^1.31E, K269^7.32N, G84^EL1W mutant ([1]; against an EC80 concentration of succinate) | antagonism against mSUCNR1-N18^1.31E/K269^7.32N [2] | Competion binding using 22 hSUCNR1 pKi (hSUCNR1 [3]) | cAMP hSUCNR1 pIC50 (hSUCNR1 [4]) | Ki (hmSUCNR1 [5]) | IC50 [6] | Competion binding using 22 mSUCNR1 pKi (mSUCNR1 [7]) | Competion binding using 46 hSUCNR1 pKi (hSUCNR1 [8]) | Ki (hmSUCNR1 [9]) | fold lower affinity at hmSUCNR1 compared to hSUCNR1 (hmSUCNR1 [9]; competition binding) | cAMP hSUCNR1 pEC50 (hSUCNR1 [10]) | EC50 (hSUCNR1 [10]; read-out: cAMP hSUCNR1 pEC50 (converted)) | G protein activation pEC50 at mSUCNR1 (mSUCNR1 [11]) | Emax (mSUCNR1 [12]) | cAMP mSUCNR1 pEC50 (mSUCNR1 [12]) | cAMP mSUCNR1 pEC50 (mSUCNR1 [12]; listed as succinate) | G protein activation pEC50 at mSUCNR1 N18^1.31E, K269^7.32N, G84^EL1W ([1]; transiently transfected HEK-293T cells) | Nluc-mSUCNR1 cAMP pEC50 (Nluc-mSUCNR1) |
| --- | --- | --- | --- | --- | --- | --- | --- | --- | --- | --- | --- | --- | --- | --- | --- | --- | --- | --- |
| CN1CCN(Cc2ccc(-c3cccc(C(=O)Nc4ccccc4CC(=O)O)c3)cc2)CC1 [Compound 1, 4-((3′-((2-(Carboxymethyl)phenyl)carbamoyl)-[1,1′-biphenyl]-4-yl)methyl)-1-methylpiperazin-1-ium 2,2,2-trifluoroacetate] | a level of antagonism similar to that with hSUCNR1 | no measurable antagonism | 7.4 ± 0.1 | 7.07 ± 0.21 | 0.0631 µM | 0.0794 µM | 5.1 ± 0.0 | 7.1 ± 0.1 | 0.0501 µM | – | – | – | – | – | – | – | – | – |
| O=C(O)Cc1ccccc1NC(=O)c1cccc(-c2ccc(Cl)cc2)c1 [Compound 32, 2-(2-(4′-Chloro-[1,1′-biphenyl]-3-carboxamido)phenyl)acetic acid] | – | – | 7.8 ± 0.3 | 6.31 ± 0.18 | 0.251 µM | – | <4.5 ^d | 7.6 ± 0.1 | 0.316 µM | ~10 fold | – | – | – | – | – | – | – | – |
| O=C(O)CCc1cccc(Oc2ccc(Oc3cccc4cnccc34)cc2C(F)(F)F)c1 [Compound 48] | – | – | 5.9 ± 0.5 | – | > 31.6 µM | – | <4.5 ^d | – | > 31.6 µM | – | – | – | – | – | – | – | – | – |
| O=C(O)CCC(=O)O [Succinate] | – | – | 3.7 ± 0.1 | – | 631 µM | – | 3.3 ± 0.1 | 3.2 ± 0.1 | 1000 µM | – | 5.04 ± 0.02 | ~10 µM | 5.29 ± 0.12 | 100% | 5.02 ± 0.10 | ~5.0 | 4.28 ± 0.09 | 5.69 ± 0.11 |
